Measurements reported in PMC3163375, “Design, Synthesis and Biological Evaluation of New 5,5-Diarylhydantoin Derivatives as Selective Cyclooxygenase-2 Inhibitors” (Scientia Pharmaceutica, 2011).

Key:
ovine COX-1 = molecular target: T1, ovine COX-1 (Ovis aries, UniProt P05979); experiment: In vitro COX-1 enzyme inhibition, chemiluminescent enzyme assay kit (Cayman); format: biochemical; settings: ovine COX-1/COX-2 assay kit; means of two determinations, deviation < 10% of the mean
T1 construct: purchased Cayman Chemical, Ann Arbor, MI, USA
T1 sequence (P05979 25-600): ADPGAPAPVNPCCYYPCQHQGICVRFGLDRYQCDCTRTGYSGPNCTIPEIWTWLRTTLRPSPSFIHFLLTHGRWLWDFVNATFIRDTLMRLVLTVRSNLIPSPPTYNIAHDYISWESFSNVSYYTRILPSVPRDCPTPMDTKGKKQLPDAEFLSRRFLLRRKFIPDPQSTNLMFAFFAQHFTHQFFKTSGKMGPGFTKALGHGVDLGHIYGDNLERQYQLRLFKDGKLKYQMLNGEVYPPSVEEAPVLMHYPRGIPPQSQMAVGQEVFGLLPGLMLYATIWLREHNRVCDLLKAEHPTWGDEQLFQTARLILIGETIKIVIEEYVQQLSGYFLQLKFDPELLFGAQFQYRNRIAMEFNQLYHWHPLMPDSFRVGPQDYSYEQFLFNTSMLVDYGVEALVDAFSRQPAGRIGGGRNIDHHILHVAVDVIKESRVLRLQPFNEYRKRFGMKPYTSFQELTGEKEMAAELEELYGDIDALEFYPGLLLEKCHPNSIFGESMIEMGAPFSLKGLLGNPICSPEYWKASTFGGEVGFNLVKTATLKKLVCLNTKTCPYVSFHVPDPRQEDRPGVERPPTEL
Description: (§1) All of the prepared 5,5-diarylhydantoin derivatives having different substituents at the N-3 hydantoin ring were evaluated to investigate the effect of different alkyls on COX-2 selectivity and potency. The ability of the 5,5-diarylhydantoin 4–8 to inhibit the COX-1 and COX-2 isozymes was determined using chemiluminescent enzyme assays (see enzyme inhibition data in Table 1.) according to our previously reported method.
(§2) The ability of the test compounds listed in Table 1 to inhibit ovine COX-1 and COX-2 (IC50 value, μM) was determined using chemiluminescent enzyme assays kit (Cayman Chemical, Ann Arbor, MI, USA) according to our previously reported method.

ovine COX-2 = molecular target: T2, ovine COX-2 (Ovis aries, UniProt P79208); experiment: In vitro COX-2 enzyme inhibition, chemiluminescent enzyme assay kit (Cayman); format: biochemical; settings: for Selectivity index (SI): In vitro COX-2 selectivity index (COX-1 IC50/COX-2 IC50); for IC50: ovine COX-1/COX-2 assay kit, means of two determinations, deviation < 10% of the mean
T2 construct: purchased Cayman Chemical, Ann Arbor, MI, USA
T2 sequence (P79208 17-603): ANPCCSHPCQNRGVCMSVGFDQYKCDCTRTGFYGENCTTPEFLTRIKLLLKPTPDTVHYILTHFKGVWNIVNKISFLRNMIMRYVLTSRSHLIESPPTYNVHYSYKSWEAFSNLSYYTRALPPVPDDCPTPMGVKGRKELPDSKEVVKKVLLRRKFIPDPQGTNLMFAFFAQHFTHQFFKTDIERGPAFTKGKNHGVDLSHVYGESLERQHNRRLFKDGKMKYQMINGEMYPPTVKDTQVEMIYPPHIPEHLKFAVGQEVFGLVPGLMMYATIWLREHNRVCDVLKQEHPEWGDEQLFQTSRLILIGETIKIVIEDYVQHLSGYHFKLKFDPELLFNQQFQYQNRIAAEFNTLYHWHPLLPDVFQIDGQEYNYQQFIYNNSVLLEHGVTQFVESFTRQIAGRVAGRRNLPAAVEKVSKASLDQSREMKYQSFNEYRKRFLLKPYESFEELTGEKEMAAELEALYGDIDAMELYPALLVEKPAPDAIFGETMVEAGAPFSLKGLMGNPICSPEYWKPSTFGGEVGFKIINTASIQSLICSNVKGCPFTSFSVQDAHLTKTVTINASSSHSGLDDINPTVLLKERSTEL
Description: as §1, §2

IC50 (ovine COX-1) [µM] | melting point [°C] | Selectivity index (SI) (ovine COX-2) | IC50 (ovine COX-2) [nM] | Compound
22.7 | 212 to 214 | 280.1 | 81 | CN1C(=O)NC(c2ccccc2)(c2ccc(S(C)(=O)=O)cc2)C1=O (stereo not shown) [Compound 5, 3-Methyl-5-[4-(methylsulfonyl)phenyl]-5-phenylimidazolidine-2,4-dione]
> 100 |  | >1298 | 77 | CS(=O)(=O)c1ccc(C2(c3ccccc3)NC(=O)NC2=O)cc1 (stereo not shown) [Compound 4, 5-[4-(Methylsulfonyl)phenyl]-5-phenylimidazolidine-2,4-dione]
12 | 82 to 83 | 70.2 | 171 | CCCN1C(=O)NC(c2ccccc2)(c2ccc(S(C)(=O)=O)cc2)C1=O (stereo not shown) [Compound 7, 5-[4-(Methylsulfonyl)phenyl]-5-phenyl-3-propylimidazolidine-2,4-dione]
15 | 129 to 130 | 151.1 | 99 | C=CCN1C(=O)NC(c2ccccc2)(c2ccc(S(C)(=O)=O)cc2)C1=O (stereo not shown) [Compound 8, 5-[4-(Methylsulfonyl)phenyl]-5-phenyl-3-(prop-2-en-1-yl)imidazolidine-2,4-dione]
20.2 | 91 to 92 | 206.2 | 98 | CCN1C(=O)NC(c2ccccc2)(c2ccc(S(C)(=O)=O)cc2)C1=O (stereo not shown) [Compound 6, 3-Ethyl-5-[4-(methylsulfonyl)phenyl]-5-phenylimidazolidine-2,4-dione]
